Test results as given in EP4737454A1, “GLP-1 RECEPTOR AGONIST, AND PREPARATION METHOD THEREFOR AND USE THEREOF” (Wayne Biotechnology Co., Ltd., priority 2023, dated 2025).

Experiments:
Human GLP-1R = Human GLP-1R (Homo sapiens, UniProt P43220); assay: cAMP level determination in human GLP-1R stably transfected HEK293T cells (HTRF cAMP kit); assay type: cell-based; conditions: 37°C 30 min
In short: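 Stably transfected HEK293T cells (1 Million/mL) stimulated 30 min at 37°C with compound (top final 2000 nM, 1:3, 11 points, 0.2% DMSO) plus 0.5 mM IBMX. HTRF cAMP read after 2 hr RT; stimulation % normalised to 100 nM GLP-1 and DMSO wells, cAMP from standard curve, EC50 by four-parameter fit.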

[1] = Pharmacokinetic analysis of compounds in mouse plasma after oral gavage or intravenous injection; assay type: in vivo, Male C57BL/6J mice
Method: Male C57BL/6J mice, approximately 30 g, 6-9 weeks old, gavage oral administration and intravenous injection: 3 mice per compound, animals from Shanghai Medicilon Inc.
The pharmacokinetic characteristics of the compounds were tested in mice after oral gavage (PO) or intravenous injection (IV) using a standard protocol. The test compounds were prepared as clear solutions with the vehicle: 10% (v/v) DMSO + 10% (v/v) Solutol + 80% (v/v) Saline. Three mice were administered a single oral gavage dose of 5 mg/kg, and blood samples were collected at 0.25, 0.5, 1, 2, 4, 6, 8, and 24 hours post-dose via submandibular vein or other appropriate methods. Each sample collected was approximately 0.03 mL, anticoagulated with sodium heparin, and placed on ice after collection. Additionally, three mice were administered a single intravenous injection of 1 mg/kg of the test compound, and blood samples were collected at 0.083, 0.25, 0.5, 1, 2, 4, 8, and 24 hours post-dose via submandibular vein or other appropriate methods. Each sample collected was approximately 0.03 mL, anticoagulated with sodium heparin, and placed on ice after collection. Plasma was separated by centrifugation within 1 hour (centrifugation conditions: 6800g, 6 minutes, 2-8°C), and the concentration of the compounds of the present invention was analyzed by LC-MS/MS method.
Prior to analysis, all samples were stored at -80°C, and pharmacokinetic parameters were calculated using Phoenix WinNonlin. Table 2: Pharmacokinetic Parameters

[2] = mouse plasma, dose 5 mg/kg single oral gavage

Human GLP-1R, sequence (P43220 24-463): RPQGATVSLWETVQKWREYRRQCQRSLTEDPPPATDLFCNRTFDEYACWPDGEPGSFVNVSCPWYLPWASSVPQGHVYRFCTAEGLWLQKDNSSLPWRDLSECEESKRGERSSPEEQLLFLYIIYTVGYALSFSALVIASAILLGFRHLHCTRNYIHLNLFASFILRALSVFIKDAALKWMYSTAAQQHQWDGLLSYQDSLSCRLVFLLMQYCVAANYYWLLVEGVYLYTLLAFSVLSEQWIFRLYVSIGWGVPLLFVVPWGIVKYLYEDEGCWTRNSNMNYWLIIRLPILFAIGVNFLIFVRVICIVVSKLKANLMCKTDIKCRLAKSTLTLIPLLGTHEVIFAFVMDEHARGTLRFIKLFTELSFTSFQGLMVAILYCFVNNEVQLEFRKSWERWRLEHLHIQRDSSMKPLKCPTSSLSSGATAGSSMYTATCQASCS

## Cc1cc(-n2nc3c(c2-n2ccn(-c4ccc(C(=O)N(C)C5CC5)c(F)c4F)c2=O)[C@H](C)N(C(=O)c2cc4cc([C@H]5CCOC(C)(C)C5)ccc4n2[C@@]2(c4nc(=O)o[nH]4)C[C@@H]2C)CC3)cc(C)c1F [Compound 5]
Human GLP-1R
  EC50: 7.69 nM
[1]; [2]
  AUC(0-t) at 24 h: 36700 ng·h/mL
  Cmax: 3880 ng/mL
  Tmax: 1.33 h
[1]; mouse plasma, table dose 5 mg/kg (oral gavage)
  half-life: 3.11 h
[1]; mouse plasma, table dose 5 mg/kg, IV arm was 1 mg/kg
  clearance: 2.38 mL/min/kg
[1]; mouse, PO 5 mg/kg versus IV 1 mg/kg
  F: 105.86%
